# Literature values, collected in patent US20090181905A1, “CRYSTALLINE FORM OF 1' -(1-METHYLETHYL)-4' -[(2-FLUORO-4-METHOXYPHENYL)METHYL]-5' -METHYL-1H-PYRAZOL-3' -O-BETA-D-GLUCOPYRANOSIDE, A METHOD FOR ITS PREPARATION AND THE USE THEREOF FOR PREPARING MEDICAMENTS” (BOEHRINGER INGELHEIM INTERNATIONAL GMBH, priority 2006, published 2009).
# System: HbA1c
# Details: metformin on its own, in the diabetic
structure (smiles),measurement,value
CN(C)C(=N)N=C(N)N [metformin],average improvement in the HbA1c value,1.0-1.5%
